Like-named read-outs stand apart in the source and are kept apart here. *1 amine or outer side, *2 acyl side, *3 side chain or, on linkers, in order; H or OH if unused. Where a SMILES comes first, the peptide text is derived from it. Bridges are numbered along the chain shown (N, C = ends). [ ]: non-standard residue; d: D form. The star is where a group is joined. hPhe(3-Cl-4-CF3) = N[C@@H](CCc1ccc(C(F)(F)F)c(Cl)c1)C(=O)O; NPrPhe(4-CF3) = CCCN[C@@H](Cc1ccc(C(F)(F)F)cc1)C(=O)O; X41 = Cc1ccc(C[C@@H](C(=O)[*:2])N(CC2CCCCC2)[*:1])cc1; NEtPhe(4-Me) = CCN[C@@H](Cc1ccc(C)cc1)C(=O)O; NMeGly(cPent) = CN[C@H](C(=O)O)C1CCCC1; Pro(4,4-Me2) = CC1(C)CN[C@H](C(=O)O)C1; Hyp = O=C(O)[C@@H]1C[C@@H](O)CN1; NMeD = CN[C@@H](CC(=O)O)C(=O)O; NMeL = CN[C@@H](CC(C)C)C(=O)O; Morpholide = C1CN(*)CCO1; NMeA = CN[C@@H](C)C(=O)O; Ac5c = NC1(C(=O)O)CCCC1; Aze = O=C(O)[C@@H]1CCN1; Sar = CNCC(=O)O
Key:
[1] = target: GDP-bound HRAS wild-type protein (Homo sapiens, UniProt P01112); assay: Binding to HRAS by surface plasmon resonance (SPR), Single Cycle Kinetics; settings: SPR, GDP-bound HRAS wild-type protein vs GDP-bound KRAS wild-type protein
[2] = target: GDP-bound KRAS wild-type protein (Homo sapiens, UniProt P01116); assay: Binding to KRAS by surface plasmon resonance (SPR), Single Cycle Kinetics; settings: GDP-bound KRAS wild-type protein, read-out: KRAS KD
[3] = target: GDP-bound NRAS wild-type protein (Homo sapiens, UniProt P01111); assay: Binding to NRAS by surface plasmon resonance (SPR), Single Cycle Kinetics; settings: SPR, GDP-bound NRAS wild-type protein vs GDP-bound KRAS wild-type protein
[4] = SPR Single Cycle Kinetics, 1:1 binding model

GDP-bound NRAS wild-type protein, sequence (P01111 whole entry): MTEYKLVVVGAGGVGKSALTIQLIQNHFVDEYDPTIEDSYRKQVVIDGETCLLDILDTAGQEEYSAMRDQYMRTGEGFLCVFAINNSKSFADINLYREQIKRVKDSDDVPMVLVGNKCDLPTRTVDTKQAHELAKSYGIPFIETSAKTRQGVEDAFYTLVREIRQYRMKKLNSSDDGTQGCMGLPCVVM
GDP-bound HRAS wild-type protein, sequence (P01112 whole entry): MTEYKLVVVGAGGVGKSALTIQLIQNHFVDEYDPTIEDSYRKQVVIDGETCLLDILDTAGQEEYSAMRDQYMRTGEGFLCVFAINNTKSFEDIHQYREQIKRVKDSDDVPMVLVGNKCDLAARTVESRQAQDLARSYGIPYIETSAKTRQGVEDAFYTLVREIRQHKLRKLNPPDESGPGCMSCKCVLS
GDP-bound KRAS wild-type protein, sequence (P01116 whole entry): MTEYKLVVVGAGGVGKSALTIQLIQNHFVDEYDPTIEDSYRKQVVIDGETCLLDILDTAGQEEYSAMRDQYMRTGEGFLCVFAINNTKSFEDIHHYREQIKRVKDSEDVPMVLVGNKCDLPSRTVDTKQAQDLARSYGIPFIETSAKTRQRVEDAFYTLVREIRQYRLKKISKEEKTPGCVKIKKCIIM

Row | Compound | HRAS/KRAS (ratio of KD value for HRAS to KD value for KRAS) [1] | Kd ([2]; SPR, Single Cycle Kinetics) [nM] | NRAS/KRAS (ratio of KD value for NRAS to KD value for KRAS) [3] | Kd [2, 4] [nM] | HRAS/KRAS (ratio of KD value with respect to HRAS to KD value with respect to KRAS) [1] | NRAS/KRAS (ratio of KD value with respect to NRAS to KD value with respect to KRAS) [3]
1 | CC[C@H](C)[C@@H]1NC(=O)[C@H](CC(C)C)N(C)C(=O)C[C@@H](C(=O)N(C)C)N(CCC2CCCC2)C(=O)[C@H](C2CCCC2)N(C)C(=O)C2(CCC2)NC(=O)[C@@H]2CC(F)(F)CN2C(=O)[C@H](CCc2ccc(C(F)(F)F)c(Cl)c2)NC(=O)CN(C)C(=O)[C@H](Cc2ccc(F)cc2)N2CCCCC[C@@H](C2=O)N(C)C(=O)CN(C)C1=O [PP0977] | A (a compound having 10 or more and less than 20 is denoted as A) | 7.7 | B (a compound having 3 or more and less than 10 is denoted as B) |  |  | 
2 | CC[C@H](C)[C@@H]1NC(=O)[C@H](CC(C)C)N(C)C(=O)C[C@@H](C(=O)N2CCOCC2)N(C)C(=O)[C@H](C2CCCC2)N(C)C(=O)C2(CCCC2)NC(=O)[C@@H]2CCCN2C(=O)[C@H](CCc2ccc(C(F)(F)F)c(Cl)c2)NC(=O)CN(C)C(=O)[C@H](Cc2ccc(C)cc2)N(CC2CCCCC2)C(=O)CN(C)C(=O)CN(C)C1=O [PP0097] ([NMeL]I[Sar][Sar][X41][Sar][hPhe(3-Cl-4-CF3)]P[Ac5c][NMeGly(cPent)][NMeD]-Morpholide; lactam N-11) | C (A compound having a KD ratio of 0.1 or more and less than 3 is denoted as C) |  | C (A compound having a KD ratio of 0.1 or more and less than 3 is denoted as C) | 9.3 |  | 
3 | CC[C@H](C)[C@@H]1NC(=O)[C@H](CC(C)C)N(C)C(=O)C[C@@H](C(=O)N2CCOCC2)N(C)C(=O)[C@H](C2CCCC2)N(C)C(=O)C2(CCCC2)NC(=O)[C@@H]2C[C@@H](O)CN2C(=O)[C@H](CCc2ccc(C(F)(F)F)c(Cl)c2)NC(=O)CN(C)C(=O)[C@H](Cc2ccc(C)cc2)N(CC)C(=O)[C@@H]2CCN2C(=O)[C@H](C)N(C)C1=O [PP0013] ([NMeL]I[NMeA][Aze][NEtPhe(4-Me)][Sar][hPhe(3-Cl-4-CF3)][Hyp][Ac5c][NMeGly(cPent)][NMeD]-Morpholide; lactam N-11) | C (A compound having a KD ratio of 0.1 or more and less than 3 is denoted as C) |  | C (A compound having a KD ratio of 0.1 or more and less than 3 is denoted as C) | 0.073 |  | 
4 | CC[C@H](C)[C@@H]1NC(=O)[C@H](CC(C)C)N(C)C(=O)C[C@@H](C(=O)N2CCCC2)N(C)C(=O)[C@H](C2CCCC2)N(C)C(=O)C2(CCCC2)NC(=O)[C@@H]2CCCN2C(=O)[C@H](CCc2cc(F)c(C(F)(F)F)c(F)c2)NC(=O)CN(C)C(=O)[C@H](Cc2ccc(C(F)(F)F)cc2)N2CCCC[C@@H](C2=O)N(C)C(=O)CN(C)C1=O [PP0571] |  |  |  | 0.05 | B (a compound having 3 or more and less than 10 is denoted as B) | B (a compound having 3 or more and less than 10 is denoted as B)
5 | CCCN1C(=O)CN(C)C(=O)CN(C)C(=O)[C@H]([C@@H](C)CC)NC(=O)[C@H](CC(C)C)N(C)C(=O)C[C@@H](C(=O)N2CCOCC2)N(C)C(=O)[C@H](C2CCCC2)N(C)C(=O)C2(CCCC2)NC(=O)[C@@H]2CC(C)(C)CN2C(=O)[C@H](CCc2ccc(C(F)(F)F)c(Cl)c2)NC(=O)CN(C)C(=O)[C@@H]1Cc1ccc(C(F)(F)F)cc1 [PP0446] ([NMeL]I[Sar][Sar][NPrPhe(4-CF3)][Sar][hPhe(3-Cl-4-CF3)][Pro(4,4-Me2)][Ac5c][NMeGly(cPent)][NMeD]-Morpholide; lactam N-11) |  |  |  | 0.1 | C (A compound having a KD ratio of 0.1 or more and less than 3 is denoted as C) | B (a compound having 3 or more and less than 10 is denoted as B)
